Patent publication US20110059482A1, “Sampling Kit” (priority 2008, published 2011)

What was measured:
MSSA = conditions: according to the referens group for questions related to antibiotic (RAF); cited from earlier work
[1] = Storage stability / shelf life of antibiotics, tablet and Herogel components; type: physicochemical; conditions: in liquid form, at about 8° C. (refrigerator)
Protocol: Background: Herogel is a selective growth medium comprising aztreonam and colistin to inhibit the growth of Enterobacteriaceae. Cefoxitin is added to the medium in order to inhibit the growth of MSSA (Methicillin Sensitive Staphylococcus Aureus). Cefoxitin has a short shelf life if it is added to the medium upon manufacturing of the medium and together with other antibiotics. Tests performed at Karolinska University Hospital Laboratory have shown that the activity of cefoxitin in liquid form is reduced after 14 days at about 8° C. (i.e. in a refrigerator) and that aztreonam and colistin if they are added to the growth medium are active for at least 4 months if stored at a temperature of about 8° C. (i.e. in a refrigerator). In order to prolong the shelf life of the Herogel, cefoxitin is incorporated in the tablet in Batch 1. The hypothesis is that the shelf life of the herogel will be prolonged if the tablet is added immediately after the sampling. The shelf life of the tablet is estimated to about 12 months in room temperature. The other components of the Herogel medium have a documented shelf life of at least 6 months upon storage in a refrigerator.

For `CO[C@@]1(NC(=O)Cc2cccs2)C(=O)N2C(C(=O)O)=C(COC(N)=O)CS[C@@H]21` [cefoxitin], the “minimal inhibitory concentration (MIC) for MSSA” value (MSSA) is given as 4 µg/mL and the “storage time after which the activity is reduced” value [1] is given as 14 days.
